# Source: patent US11332503B2, “Peptides for treatment and prevention of hyperglycaemia” (UNIVERSITE DE STRASBOURG, priority 2017, dated 2022)
# Positions of bridges follow the written chain, without caps; N, C: chain ends. Non-standard residues stand in square brackets, D forms with d. R8 = C=CCCCCCC[C@@](C)(N)C(=O)O; S5 = C=CCCC[C@](C)(N)C(=O)O
# Test system: human primary adipocytes
# Assay: In vitro 2-deoxy-D-glucose-6-phosphate (DG6P) uptake in human primary adipocytes
# Format: cell-based
# Protocol: Human white visceral preadipocytes (Catalog #: C-12732; PromoCell) were purchased. The preadipocytes were seeded according to manufacturer's protocol and cultured in the Preadipocyte growth medium (Catalog #: C-27410; PromoCell) to confluence. Once confluence was reached, adipogenic differentiation was triggered through medium change to get mature human adipocytes. For the culture without insulin, Adipocyte Basal Medium (Catalog #: C-2431; PromoCell) without insulin was complemented with 5 g/L of […], 8 μg/mL d-Biotin, 400 ng/mL Dexamethasone (following manufacturer's procedure). Native peptides and their stapled counterparts as well as the scrambled peptides (corresponding to the same set of amino acids but rearranged randomly) were purchased from Eurogentec. Each peptide was diluted in saline and used at a dose of 2.5 ng per 10 cm square of cell culture surface area for in vitro studies or 2.5 ng of each peptide (A and B) was injected per mouse.
# Mature adipocytes were cultured in 96 well plate. The adipocytes received the different peptides at the indicated concentration above. 24 hours later, the glucose absorption capacity if the treated cells were assessed using the Glucose Uptake Colorimetric Assay kit from Bio Vision (Catalog #: K676-100).
# In vivo assessment of the effect of stapled peptides A and B injection in the adipose tissue of diet-induced diabetic WT mice. Mice were fed with a defined high fat/high glucose diet until they became intolerant to glucose (FIG. 5A, Prior Injection). Once the mice were glucose intolerant, these mice received an injection with a combination of the stapled peptides A and B directly in the subcutaneous fat and GTT was again performed a week later as depicted in FIG. 5B. […] FIG. 5C depicts pictures of the adipose tissue which received a combination of the stapled peptides A and B labelled with FAM (green dots indicated with the white arrows). […] A variety of modified stapled peptides were designed to test the effect of modifying the peptide sequence on insulin-independent glucose uptake into adipocytes. Peptides were obtained from CPC Scientific. Additional in vitro 2-deoxy-D-glucose-6-phosphate (DG6P) uptake results in human primary adipocytes for individual peptides of the present technology are provided in Tables 1-3.
# [1] = Table 2 dose response, 0.001 μM
substance,measurement,setting,value
H-VE(AAB)TM-R8-EKRVLA-S5-LDKPPFLTQLHS-OH [AT017],2-DG6P,"Table 1, peptides at 50 μM",55.4 pmol
same,2-DG6P compared to -Insulin (%),"Table 1, peptides at 50 μM",184.0%
H-VECTM-S5-EKR-S5-LALLDKPPFLTQLHS-OH [AT008],2-DG6P,"Table 1, peptides at 50 μM",53.3 pmol
same,2-DG6P compared to -Insulin (%),"Table 1, peptides at 50 μM",177.0%
H-LPHET-R8-RLSQKV-S5-TKLDCLMFVEPA-OH [AT004] (H-LPHET[R8]RLSQKV[S5]TKLDCLMFVEPA-OH; staple 6-13; SMILES CSCC[C@H](NC(=O)[C@H](CC(C)C)NC(=O)[C@H](CS)NC(=O)[C@H](CC(=O)O)NC(=O)[C@H](CC(C)C)NC(=O)[C@H](CCCCN)NC(=O)[C@@H](NC(=O)[C@]1(C)CCCC=CCCCCCC[C@@](C)(NC(=O)[C@@H](NC(=O)[C@H](CCC(=O)O)NC(=O)[C@H](Cc2c[nH]cn2)NC(=O)[C@@H]2CCCN2C(=O)[C@@H](N)CC(C)C)[C@@H](C)O)C(=O)N[C@@H](CCCNC(=N)N)C(=O)N[C@@H](CC(C)C)C(=O)N[C@@H](CO)C(=O)N[C@@H](CCC(N)=O)C(=O)N[C@@H](CCCCN)C(=O)N[C@@H](C(C)C)C(=O)N1)[C@@H](C)O)C(=O)N[C@@H](Cc1ccccc1)C(=O)N[C@H](C(=O)N[C@@H](CCC(=O)O)C(=O)N1CCC[C@H]1C(=O)N[C@@H](C)C(=O)O)C(C)C) [reference compound],2-DG6P,"Table 1, peptides at 50 μM",29.5 pmol
same,2-DG6P compared to -Insulin (%),"Table 1, peptides at 50 μM",98.0%
H-VECTM-R8-EKRVLA-S5-LDKPPFLTQLHS-NH2 [AT003],2-DG6P,"Table 1, peptides at 50 μM",46.2 pmol
same,2-DG6P compared to -Insulin (%),"Table 1, peptides at 50 μM",153.3%
H-VECTM-R8-EKRVLA-S5-LDKPPF-OH (H-VECTM[R8]EKRVLA[S5]LDKPPF-OH; staple 6-13; SMILES CSCC[C@H](NC(=O)[C@@H](NC(=O)[C@H](CS)NC(=O)[C@H](CCC(=O)O)NC(=O)[C@@H](N)C(C)C)[C@@H](C)O)C(=O)N[C@]1(C)CCCCCCC=CCCC[C@@](C)(C(=O)N[C@@H](CC(C)C)C(=O)N[C@@H](CC(=O)O)C(=O)N[C@@H](CCCCN)C(=O)N2CCC[C@H]2C(=O)N2CCC[C@H]2C(=O)N[C@@H](Cc2ccccc2)C(=O)O)NC(=O)[C@H](C)NC(=O)[C@H](CC(C)C)NC(=O)[C@H](C(C)C)NC(=O)[C@H](CCCNC(=N)N)NC(=O)[C@H](CCCCN)NC(=O)[C@H](CCC(=O)O)NC1=O) [AT014],2-DG6P,"Table 1, peptides at 50 μM",58.8 pmol
same,2-DG6P compared to -Insulin (%),"Table 1, peptides at 50 μM",195.1%
H-LPHET-R8-RLSQKV-S5-TKLDCLMFVEPA-OH [AT006] (H-LPHET[R8]RLSQKV[S5]TKLDCLMFVEPA-OH; staple 6-13; SMILES CSCC[C@H](NC(=O)[C@H](CC(C)C)NC(=O)[C@H](CS)NC(=O)[C@H](CC(=O)O)NC(=O)[C@H](CC(C)C)NC(=O)[C@H](CCCCN)NC(=O)[C@@H](NC(=O)[C@]1(C)CCCC=CCCCCCC[C@@](C)(NC(=O)[C@@H](NC(=O)[C@H](CCC(=O)O)NC(=O)[C@H](Cc2c[nH]cn2)NC(=O)[C@@H]2CCCN2C(=O)[C@@H](N)CC(C)C)[C@@H](C)O)C(=O)N[C@@H](CCCNC(=N)N)C(=O)N[C@@H](CC(C)C)C(=O)N[C@@H](CO)C(=O)N[C@@H](CCC(N)=O)C(=O)N[C@@H](CCCCN)C(=O)N[C@@H](C(C)C)C(=O)N1)[C@@H](C)O)C(=O)N[C@@H](Cc1ccccc1)C(=O)N[C@H](C(=O)N[C@@H](CCC(=O)O)C(=O)N1CCC[C@H]1C(=O)N[C@@H](C)C(=O)O)C(C)C) [reference compound],2-DG6P,"Table 1, peptides at 50 μM",30.7 pmol
same,2-DG6P compared to -Insulin (%),"Table 1, peptides at 50 μM",102.0%
H-LPHET-R8-RLSQKV-S5-TKLDCLMFVEPA-OH [AT005] (H-LPHET[R8]RLSQKV[S5]TKLDCLMFVEPA-OH; staple 6-13; SMILES CSCC[C@H](NC(=O)[C@H](CC(C)C)NC(=O)[C@H](CS)NC(=O)[C@H](CC(=O)O)NC(=O)[C@H](CC(C)C)NC(=O)[C@H](CCCCN)NC(=O)[C@@H](NC(=O)[C@]1(C)CCCC=CCCCCCC[C@@](C)(NC(=O)[C@@H](NC(=O)[C@H](CCC(=O)O)NC(=O)[C@H](Cc2c[nH]cn2)NC(=O)[C@@H]2CCCN2C(=O)[C@@H](N)CC(C)C)[C@@H](C)O)C(=O)N[C@@H](CCCNC(=N)N)C(=O)N[C@@H](CC(C)C)C(=O)N[C@@H](CO)C(=O)N[C@@H](CCC(N)=O)C(=O)N[C@@H](CCCCN)C(=O)N[C@@H](C(C)C)C(=O)N1)[C@@H](C)O)C(=O)N[C@@H](Cc1ccccc1)C(=O)N[C@H](C(=O)N[C@@H](CCC(=O)O)C(=O)N1CCC[C@H]1C(=O)N[C@@H](C)C(=O)O)C(C)C) [reference compound],2-DG6P,"Table 1, peptides at 50 μM",27.7 pmol
same,2-DG6P compared to -Insulin (%),"Table 1, peptides at 50 μM",92.0%
H-VECTM-R8-EKRVLA-S5-LDKPPFLTQLHS-OH [AT021],2-DG6P,"Table 1, peptides at 50 μM",37.5 pmol
same,2-DG6P compared to -Insulin (%),"Table 1, peptides at 50 μM",124.6%
H-VECTM-R8-EKRVLA-S5-LDKPPFLTQLHS-OH [AT001],2-DG6P,"Table 1, peptides at 50 μM",44.2 pmol
same,2-DG6P compared to -Insulin (%),"Table 1, peptides at 50 μM",146.8%
same,2-DG6P,[1],19.9 pmol
same,2-DG6P compared to -Insulin (%),[1],91.2%
same,2-DG6P,"Table 2 dose response, 0.01 μM",21.3 pmol
same,2-DG6P compared to -Insulin (%),"Table 2 dose response, 0.01 μM",97.5%
same,2-DG6P,"Table 2 dose response, 0.1 μM",22.3 pmol
same,2-DG6P compared to -Insulin (%),"Table 2 dose response, 0.1 μM",102.0%
same,2-DG6P,"Table 2 dose response, 1 μM",23.9 pmol
same,2-DG6P compared to -Insulin (%),"Table 2 dose response, 1 μM",109.6%
same,2-DG6P,"Table 2 dose response, 10 μM",31.7 pmol
same,2-DG6P compared to -Insulin (%),"Table 2 dose response, 10 μM",145.2%
same,2-DG6P,"Table 2 dose response, 100 μM",47.2 pmol
same,2-DG6P compared to -Insulin (%),"Table 2 dose response, 100 μM",216.1%
H-VECTM-R8-EKRVLA-S5-LDKP-OH (H-VECTM[R8]EKRVLA[S5]LDKP-OH; staple 6-13; SMILES CSCC[C@H](NC(=O)[C@@H](NC(=O)[C@H](CS)NC(=O)[C@H](CCC(=O)O)NC(=O)[C@@H](N)C(C)C)[C@@H](C)O)C(=O)N[C@]1(C)CCCCCCC=CCCC[C@@](C)(C(=O)N[C@@H](CC(C)C)C(=O)N[C@@H](CC(=O)O)C(=O)N[C@@H](CCCCN)C(=O)N2CCC[C@H]2C(=O)O)NC(=O)[C@H](C)NC(=O)[C@H](CC(C)C)NC(=O)[C@H](C(C)C)NC(=O)[C@H](CCCNC(=N)N)NC(=O)[C@H](CCCCN)NC(=O)[C@H](CCC(=O)O)NC1=O) [AT015],2-DG6P,"Table 1, peptides at 50 μM",35.7 pmol
same,2-DG6P compared to -Insulin (%),"Table 1, peptides at 50 μM",118.6%
same,2-DG6P,"Table 3 dose response, 1 μM",16.6 pmol
same,2-DG6P compared to -Insulin (%),"Table 3 dose response, 1 μM",121.0%
same,2-DG6P,"Table 3 dose response, 10 μM",28.9 pmol
same,2-DG6P compared to -Insulin (%),"Table 3 dose response, 10 μM",210.6%
same,2-DG6P,"Table 3 dose response, 100 μM",39.2 pmol
same,2-DG6P compared to -Insulin (%),"Table 3 dose response, 100 μM",284.9%
H-VECT(AAH)-R8-EKRVLA-S5-LDKPPFLTQLHS-OH [AT018],2-DG6P,"Table 1, peptides at 50 μM",28.2 pmol
same,2-DG6P compared to -Insulin (%),"Table 1, peptides at 50 μM",93.5%
"+Insulin: insulin-treated adipocytes, positive control of the DG6P uptake assay [reference compound]",2-DG6P,"Table 1, +Insulin control",94.2 pmol
same,2-DG6P compared to -Insulin (%),"Table 1, +Insulin control",312.6%
same,2-DG6P,"Table 2, +Ins control",79.3 pmol
same,2-DG6P compared to -Insulin (%),"Table 2, +Ins control",363.3%
same,2-DG6P,"Table 3, +Insulin control",87.9 pmol
same,2-DG6P compared to -Insulin (%),"Table 3, +Insulin control",639.6%
H-VECTM-R8-EKRVLA-S5-LD-OH (H-VECTM[R8]EKRVLA[S5]LD-OH; staple 6-13; SMILES CSCC[C@H](NC(=O)[C@@H](NC(=O)[C@H](CS)NC(=O)[C@H](CCC(=O)O)NC(=O)[C@@H](N)C(C)C)[C@@H](C)O)C(=O)N[C@]1(C)CCCCCCC=CCCC[C@@](C)(C(=O)N[C@@H](CC(C)C)C(=O)N[C@@H](CC(=O)O)C(=O)O)NC(=O)[C@H](C)NC(=O)[C@H](CC(C)C)NC(=O)[C@H](C(C)C)NC(=O)[C@H](CCCNC(=N)N)NC(=O)[C@H](CCCCN)NC(=O)[C@H](CCC(=O)O)NC1=O) [AT016],2-DG6P,"Table 1, peptides at 50 μM",51.5 pmol
same,2-DG6P compared to -Insulin (%),"Table 1, peptides at 50 μM",170.9%
same,2-DG6P,"Table 3 dose response, 1 μM",23.7 pmol
same,2-DG6P compared to -Insulin (%),"Table 3 dose response, 1 μM",172.4%
same,2-DG6P,"Table 3 dose response, 10 μM",38.6 pmol
same,2-DG6P compared to -Insulin (%),"Table 3 dose response, 10 μM",280.6%
same,2-DG6P,"Table 3 dose response, 100 μM",51.4 pmol
same,2-DG6P compared to -Insulin (%),"Table 3 dose response, 100 μM",373.7%
H-VECTM-R8-EKRVLA-S5-LDKPPFLTQLHS-OH [AT007],2-DG6P,"Table 1, peptides at 50 μM",57.7 pmol
same,2-DG6P compared to -Insulin (%),"Table 1, peptides at 50 μM",191.5%
same,2-DG6P,"Table 2 dose response, 0.1 μM",23.2 pmol
same,2-DG6P compared to -Insulin (%),"Table 2 dose response, 0.1 μM",106.5%
same,2-DG6P,"Table 2 dose response, 1 μM",24.0 pmol
same,2-DG6P compared to -Insulin (%),"Table 2 dose response, 1 μM",110.1%
same,2-DG6P,"Table 2 dose response, 10 μM",36.0 pmol
same,2-DG6P compared to -Insulin (%),"Table 2 dose response, 10 μM",165.0%
same,2-DG6P,"Table 2 dose response, 100 μM",55.5 pmol
same,2-DG6P compared to -Insulin (%),"Table 2 dose response, 100 μM",254.3%
